What was measured:
[1] = Liquid crystallinity: phase transition temperature measured using a polarization microscope; assay type: physicochemical
Protocol: A phase transition temperature of the prepared liquid crystal composition was measured using a polarization microscope.

[2] = Solubility: presence or absence of precipitation over time in cyclopentanone/methyl ethyl ketone; assay type: physicochemical; settings: 50 mg, cyclopentanone/methyl ethyl ketone 3/1 by weight, solid content 30 wt %, dissolved at 60° C., cooled to room temperature (25° C.), visual precipitation over time
Protocol: 50 mg of each of the liquid crystal compositions prepared in a 1.5 mL sample bottle was weighed, and a solvent (mixture of cyclopentanone/methyl ethyl ketone at a weight ratio of 3/1) was added thereto until the solid content was 30 wt % ([…]).
Next, the mixture was heated to 60° C. and stirred to be dissolved, cooled to room temperature (25° C.), and the presence or absence of precipitation was visually confirmed over time after cooling and evaluated according to the following standard.
C: precipitation occurred within 24 hours at room temperature.

- Liquid crystallinity: phase transition temperature between isotropic liquid (Iso) and crystal (Cr) [1]: Iso 178 Cr ° C.
SMILES: C=CC(=O)OCC(C)(C)COC(=O)CCC(=O)OCCc1ccc(OC(=O)C2CCC(C(=O)Oc3c(C(C)(C)C)cc(OC(=O)C4CCC(C(=O)Oc5cc(C(C)(C)C)c(OC(=O)C6CCC(C(=O)Oc7ccc(CCOC(=O)CCC(=O)OCC(C)(C)COC(=O)C=C)cc7)CC6)c6c5SC(=C(C#N)C#N)S6)CC4)c4c3SC(=C(C#N)C#N)S4)CC2)cc1 (centres unmarked) [Comparative Example 1]
- Solubility [2]: C (precipitation occurred within 24 hours at room temperature)

From patent publication US20250243407A1, “LIQUID CRYSTAL COMPOSITION, OPTICALLY ANISOTROPIC FILM, OPTICAL FILM, POLARIZING PLATE, IMAGE DISPLAY APPARATUS, AND POLYMERIZABLE COMPOUND” (FUJIFILM Corporation, priority 2022, published 2025)
